Source: PubChem BioAssay (NCI)
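Step 1: Grow cells in 96-well plates. Step 2: Expose to compound for 48 hours at 5 concentrations. Step 3: Interpolate endpoints linearly; if unreached, use highest concentration. TGI denotes the concentration required for complete inhibition of growth.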

Legend:
Test in all cases: DTP human tumour cell line panel, 48 h
HOP-62 NSCLC = system: HOP-62 NSCLC
MDA-N = system: MDA-N
SK-MEL-2 melanoma = system: SK-MEL-2 melanoma
HT29 colon = system: HT29 colon
TK-10 renal = system: TK-10 renal
UO-31 renal = system: UO-31 renal
LOX IMVI melanoma = system: LOX IMVI melanoma
M14 melanoma = system: M14 melanoma
OVCAR-4 ovarian = system: OVCAR-4 ovarian
MALME-3M melanoma = system: MALME-3M melanoma
A549 NSCLC = system: A549 NSCLC
786-0 renal = system: 786-0 renal
U251 CNS = system: U251 CNS
RPMI-8226 leukemia = system: RPMI-8226 leukemia
OVCAR-5 ovarian = system: OVCAR-5 ovarian
NCI/ADR-RES ovarian = system: NCI/ADR-RES ovarian
CAKI-1 renal = system: CAKI-1 renal
OVCAR-8 ovarian = system: OVCAR-8 ovarian
KM12 colon = system: KM12 colon
UACC-257 melanoma = system: UACC-257 melanoma
ACHN renal = system: ACHN renal
HCC-2998 colon = system: HCC-2998 colon
NCI-H23 lung = system: NCI-H23 lung
SN12C renal = system: SN12C renal
SNB-19 CNS = system: SNB-19 CNS
CCRF-CEM leukemia = system: CCRF-CEM leukemia
COLO 205 colon = system: COLO 205 colon
EKVX NSCLC = system: EKVX NSCLC
SK-MEL-28 melanoma = system: SK-MEL-28 melanoma
BT-549 breast = system: BT-549 breast
NCI-H460 lung = system: NCI-H460 lung
A498 renal = system: A498 renal
UACC-62 melanoma = system: UACC-62 melanoma
SK-OV-3 ovarian = system: SK-OV-3 ovarian
NCI-H226 lung = system: NCI-H226 lung
SNB-75 CNS = system: SNB-75 CNS
K-562 leukemia = system: K-562 leukemia
HCT-15 colon = system: HCT-15 colon
SF-295 CNS = system: SF-295 CNS
MCF7 breast = system: MCF7 breast
OVCAR-3 ovarian = system: OVCAR-3 ovarian
MDA-MB-231 breast = system: MDA-MB-231 breast
RXF 393 renal = system: RXF 393 renal
HCT-116 colon = system: HCT-116 colon
DU-145 prostate = system: DU-145 prostate
HOP-92 NSCLC = system: HOP-92 NSCLC
SW-620 colon = system: SW-620 colon
IGROV1 ovarian = system: IGROV1 ovarian
HL-60(TB) leukemia = system: HL-60(TB) leukemia
NCI-H522 lung = system: NCI-H522 lung
SR leukemia = system: SR leukemia
HS 578T breast = system: HS 578T breast
SF-539 CNS = system: SF-539 CNS
MDA-MB-435 = system: MDA-MB-435
SF-268 CNS = system: SF-268 CNS
T-47D breast = system: T-47D breast
SK-MEL-5 melanoma = system: SK-MEL-5 melanoma
MOLT-4 leukemia = system: MOLT-4 leukemia
PC-3 prostate = system: PC-3 prostate

With `COC(=O)[C@H](Cc1ccccc1)NC(=O)c1ccc(CNC(=O)/C=C/c2ccc(OCc3ccccc3)cc2)cc1` the TGI (HOP-62 NSCLC) was 26.3 µM, the TGI (MDA-N) was 5.43 µM and the TGI (SK-MEL-2 melanoma) was 7.92 µM. It also gave a TGI (HT29 colon) of over 58 µM, a TGI (TK-10 renal) of 32 µM and a TGI (UO-31 renal) of 29.5 µM. The TGI (LOX IMVI melanoma) was over 100 µM, the TGI (M14 melanoma) was 7.38 µM and the TGI (OVCAR-4 ovarian) was 25.2 µM. For the same compound, the TGI (MALME-3M melanoma) was 11.5 µM, the TGI (A549 NSCLC) was over 72.7 µM and the TGI (786-0 renal) was 19.1 µM. It also gave a TGI (U251 CNS) of over 75.4 µM, a TGI (RPMI-8226 leukemia) of over 100 µM and a TGI (OVCAR-5 ovarian) of over 81.6 µM. The TGI (NCI/ADR-RES ovarian) was over 78 µM, the TGI (CAKI-1 renal) was 26 µM and the TGI (OVCAR-8 ovarian) was 36.4 µM. For the same compound, the TGI (KM12 colon) was over 100 µM, the TGI (UACC-257 melanoma) was 7.33 µM and the TGI (ACHN renal) was 33 µM. It also gave a TGI (HCC-2998 colon) of over 100 µM, a TGI (NCI-H23 lung) of 33.5 µM and a TGI (SN12C renal) of 32.6 µM. It also gave a TGI (SNB-19 CNS) of 36.8 µM, a TGI (CCRF-CEM leukemia) of over 100 µM and a TGI (COLO 205 colon) of over 100 µM. It also gave a TGI (EKVX NSCLC) of 87.6 µM, a TGI (SK-MEL-28 melanoma) of 25.2 µM and a TGI (BT-549 breast) of 57.9 µM. It also gave a TGI (NCI-H460 lung) of over 100 µM, a TGI (A498 renal) of 21.4 µM and a TGI (UACC-62 melanoma) of 18.6 µM. For the same compound, the TGI (SK-OV-3 ovarian) was 59.9 µM, the TGI (NCI-H226 lung) was 49.8 µM and the TGI (SNB-75 CNS) was 31.6 µM. The TGI (K-562 leukemia) was over 100 µM, the TGI (HCT-15 colon) was over 100 µM and the TGI (SF-295 CNS) was 35.7 µM. For the same compound, the TGI (MCF7 breast) was over 100 µM, the TGI (OVCAR-3 ovarian) was 28.2 µM and the TGI (MDA-MB-231 breast) was 47 µM. It also gave a TGI (RXF 393 renal) of 18.7 µM, a TGI (HCT-116 colon) of over 100 µM and a TGI (DU-145 prostate) of 32.4 µM. It also gave a TGI (HOP-92 NSCLC) of 9.43 µM, a TGI (SW-620 colon) of over 100 µM and a TGI (IGROV1 ovarian) of 9.66 µM. The TGI (HL-60(TB) leukemia) was 11.8 µM, the TGI (NCI-H522 lung) was over 100 µM and the TGI (SR leukemia) was over 100 µM. For the same compound, the TGI (HS 578T breast) was 21.1 µM, the TGI (SF-539 CNS) was 51.9 µM and the TGI (MDA-MB-435) was 12.8 µM. For the same compound, the TGI (SF-268 CNS) was 28.1 µM, the TGI (T-47D breast) was 72.2 µM and the TGI (SK-MEL-5 melanoma) was 33.4 µM. For the same compound, the TGI (MOLT-4 leukemia) was 28 µM and the TGI (PC-3 prostate) was 43.8 µM.
